Results as given in ChEMBL document CHEMBL4715830, “Design, synthesis and biological evaluation of suramin-derived dual antagonists of the proinflammatory G protein-coupled receptors P2Y and GPR17” (Eur J Med Chem, 2020).
The source made the active and inactive calls. The rule behind the calls is not given here.

Tests used:
[1] = target: P2Y purinoceptor 4 (Homo sapiens) (UniProt P51582); experiment: (§1) Antagonist activity at human P2Y4 receptor expressed in human 1321N1 cells assessed as inhibition of UTP-induced intracellular calcium influx at 10 to 100 uM preincubated for 20 mins followed by UTP addition measured at 0.4 secs interval for 60 times by Oregon Green BAPTA-1/AM dye-based fluorescence assay; type: functional, cell-based; conditions: dose 10-100 µM
Sequence of P2Y purinoceptor 4 (Homo sapiens) (P51582 whole entry): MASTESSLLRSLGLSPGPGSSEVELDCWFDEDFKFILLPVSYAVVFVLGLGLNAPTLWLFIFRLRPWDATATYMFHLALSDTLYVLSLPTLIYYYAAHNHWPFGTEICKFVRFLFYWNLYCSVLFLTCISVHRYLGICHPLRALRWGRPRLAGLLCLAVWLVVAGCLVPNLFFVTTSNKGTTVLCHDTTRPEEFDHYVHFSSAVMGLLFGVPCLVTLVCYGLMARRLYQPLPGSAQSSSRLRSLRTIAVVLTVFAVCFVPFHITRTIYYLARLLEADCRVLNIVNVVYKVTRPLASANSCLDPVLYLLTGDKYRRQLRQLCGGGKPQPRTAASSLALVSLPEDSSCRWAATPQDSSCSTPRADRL

[2] = target: P2Y purinoceptor 1 (Homo sapiens) (UniProt P47900); experiment: Antagonist activity at human P2Y1 receptor expressed in human 1321N1 cells assessed as inhibition of ADP-induced intracellular calcium influx at 10 uM preincubated for 20 mins followed by ADP addition measured at 0.4 secs interval for 60 times by Oregon Green BAPTA-1/AM dye-based fluorescence assay; type: functional, cell-based
Sequence of P2Y purinoceptor 1 (Homo sapiens) (P47900 whole entry): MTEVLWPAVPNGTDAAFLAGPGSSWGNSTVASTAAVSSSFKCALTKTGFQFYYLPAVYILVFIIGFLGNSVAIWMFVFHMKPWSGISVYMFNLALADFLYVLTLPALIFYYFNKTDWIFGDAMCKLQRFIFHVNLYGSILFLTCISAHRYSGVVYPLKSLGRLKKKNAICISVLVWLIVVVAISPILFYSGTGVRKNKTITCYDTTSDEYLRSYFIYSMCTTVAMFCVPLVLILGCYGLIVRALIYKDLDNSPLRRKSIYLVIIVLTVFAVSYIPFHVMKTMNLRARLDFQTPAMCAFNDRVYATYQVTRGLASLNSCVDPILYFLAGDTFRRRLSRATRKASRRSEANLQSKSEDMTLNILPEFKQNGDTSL

[3] = target: P2Y purinoceptor 6 (Rattus norvegicus) (UniProt Q63371); experiment: as §1, with “rat P2Y6” for “human P2Y4”, “UDP-induced” for “UTP-induced”, “UDP” for “UTP”; type: functional, cell-based; conditions: dose 10-100 µM
Sequence of P2Y purinoceptor 6 (Rattus norvegicus) (Q63371 whole entry): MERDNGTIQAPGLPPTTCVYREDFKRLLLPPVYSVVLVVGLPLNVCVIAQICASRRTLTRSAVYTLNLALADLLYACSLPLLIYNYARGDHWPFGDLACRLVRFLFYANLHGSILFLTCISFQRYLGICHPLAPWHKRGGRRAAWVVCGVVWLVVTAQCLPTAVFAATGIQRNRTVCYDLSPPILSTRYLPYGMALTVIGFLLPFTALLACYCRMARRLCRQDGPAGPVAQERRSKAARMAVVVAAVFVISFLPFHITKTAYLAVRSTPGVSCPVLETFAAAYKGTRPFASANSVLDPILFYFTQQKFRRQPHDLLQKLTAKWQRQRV

[4] = target: T1, P2Y purinoceptor 14 (Homo sapiens) (UniProt Q15391); experiment: Antagonist activity at recombinant human Gi/Go-coupled GP2Y14 receptor expressed in CHOK1 cells assessed as inhibition of […]-induced inhibition of beta-arrestin recruitment at 10 uM by pathhunter assay; type: cell-based
T1 sequence (whole entry): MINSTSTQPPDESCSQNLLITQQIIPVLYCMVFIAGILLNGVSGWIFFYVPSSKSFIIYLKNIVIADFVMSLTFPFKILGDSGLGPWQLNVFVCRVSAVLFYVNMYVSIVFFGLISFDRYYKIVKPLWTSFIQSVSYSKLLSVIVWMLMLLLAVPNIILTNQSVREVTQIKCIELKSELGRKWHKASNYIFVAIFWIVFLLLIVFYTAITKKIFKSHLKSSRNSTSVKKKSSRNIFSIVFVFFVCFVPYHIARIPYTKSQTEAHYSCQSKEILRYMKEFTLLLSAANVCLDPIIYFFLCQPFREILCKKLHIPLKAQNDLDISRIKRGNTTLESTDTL

[5] = target: P2Y purinoceptor 12 (Homo sapiens) (UniProt Q9H244); experiment: Antagonist activity at recombinant human Gi/Go-coupled GP2Y12 receptor expressed in CHOK1 cells assessed as inhibition of 2-(Methylthio)ADP-induced inhibition of beta-arrestin recruitment at 10 uM by pathhunter assay; type: cell-based; conditions: CHO-K1
Sequence of P2Y purinoceptor 12 (Homo sapiens) (Q9H244 whole entry): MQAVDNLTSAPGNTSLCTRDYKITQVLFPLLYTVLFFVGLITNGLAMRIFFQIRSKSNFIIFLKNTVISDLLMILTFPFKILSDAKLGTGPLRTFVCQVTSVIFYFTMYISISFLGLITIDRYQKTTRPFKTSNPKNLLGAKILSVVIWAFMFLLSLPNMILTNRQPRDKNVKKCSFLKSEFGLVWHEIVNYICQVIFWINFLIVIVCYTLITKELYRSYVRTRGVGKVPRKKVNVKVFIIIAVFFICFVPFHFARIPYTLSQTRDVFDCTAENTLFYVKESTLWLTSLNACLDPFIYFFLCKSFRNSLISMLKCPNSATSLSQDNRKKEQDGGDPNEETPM

SMILES	inhibition [1]	inhibition [2]	inhibition [3]	inhibition [4]	inhibition [5]
Cc1cccc(C(=O)Nc2ccc(S(=O)(=O)NCc3cccc(Cl)c3)cc2)c1	inactive	inactive	inactive	inactive	inactive
Cc1cccc(C(=O)Nc2ccc(S(=O)(=O)Oc3cccc(C#N)c3)cc2)c1	inactive	inactive	inactive	inactive	inactive
COC(=O)c1cccc(NC(=O)Nc2ccc(NC(=O)c3cccc(C)c3)cc2)c1	inactive	inactive	inactive	inactive	inactive
Cc1cccc(C(=O)Nc2ccc(NC(=O)Nc3cccc(C(=O)O)c3)cc2)c1	inactive	inactive	inactive	inactive	inactive
O=C(Nc1ccc(S(=O)(=O)Oc2cccc([N+](=O)[O-])c2)cc1)c1cccc(Cl)c1	inactive	inactive	inactive	inactive	inactive
COC(=O)c1cccc(NC(=O)Nc2cccc(NC(=O)c3cccc(C)c3)c2)c1	inactive	inactive	inactive	inactive	inactive
CC(=O)c1cccc(C(=O)Nc2ccc(S(=O)(=O)Oc3cccc([N+](=O)[O-])c3)cc2)c1	inactive	inactive	inactive	inactive	inactive
Cc1cccc(NC(=O)c2cccc(NC(=O)Nc3cccc(C(=O)O)c3)c2)c1	inactive	inactive	inactive	inactive	inactive
O=C(Nc1ccc(S(=O)(=O)Oc2cccc([N+](=O)[O-])c2)cc1)c1cccc(F)c1	inactive	inactive	inactive	inactive	inactive
O=C(Nc1ccc(S(=O)(=O)Oc2cccc([N+](=O)[O-])c2)cc1)c1ccc(Cl)c(Cl)c1	inactive	inactive	inactive	inactive	inactive
O=C(Nc1ccc(S(=O)(=O)Oc2cccc([N+](=O)[O-])c2)cc1)c1cccc(Br)c1	inactive	inactive	inactive	inactive	inactive
O=C(Nc1ccc(S(=O)(=O)Oc2cccc([N+](=O)[O-])c2)cc1)c1ccccc1	inactive	inactive	inactive	inactive	inactive
Cc1cccc(C(=O)Nc2cccc(NC(=O)Nc3cccc(C(=O)O)c3)c2)c1	inactive	inactive	inactive	inactive	inactive
Cc1cccc(C(=O)Nc2cccc(S(=O)(=O)Oc3cccc([N+](=O)[O-])c3)c2)c1	inactive	inactive	inactive	inactive	inactive
Cc1ccc(C(=O)Nc2ccc(S(=O)(=O)Oc3cccc([N+](=O)[O-])c3)cc2)cc1	inactive	inactive	inactive	inactive	inactive
COC(=O)c1cccc(NC(=O)Nc2cccc(C(=O)Nc3cccc(C)c3)c2)c1	inactive	inactive	inactive	inactive	inactive
O=C(Nc1ccc(S(=O)(=O)Oc2cccc([N+](=O)[O-])c2)cc1)c1cccc(C(F)(F)F)c1	inactive	inactive	inactive	inactive	inactive
Cc1cccc(C(=O)Nc2ccc(S(=O)(=O)Nc3cccc([N+](=O)[O-])c3)cc2)c1	inactive	inactive	inactive	inactive	inactive
CCC(=O)c1cccc(C(=O)Nc2ccc(S(=O)(=O)Oc3cccc([N+](=O)[O-])c3)cc2)c1	inactive	inactive	inactive	inactive	inactive

Next, values leading:

inhibition [1]	inhibition [2]	inhibition [3]	inhibition [4]	inhibition [5]	SMILES
inactive	inactive	inactive	inactive	inactive	Cc1cccc(NC(=O)c2ccc(NC(=O)c3cccc([N+](=O)[O-])c3)cc2)c1
inactive	inactive	inactive	inactive	inactive	Cc1cccc(C(=O)Nc2cccc(NC(=O)c3ccc([N+](=O)[O-])cc3)c2)c1
inactive	inactive	inactive	inactive	inactive	Cc1cccc(C(=O)Nc2ccc(NC(=O)c3cccc([N+](=O)[O-])c3)cc2)c1
inactive	inactive	inactive	inactive	inactive	Cc1cccc(NC(=O)c2cccc(NC(=O)c3cccc([N+](=O)[O-])c3)c2)c1
inactive	inactive	inactive	inactive	inactive	Cc1cccc(NC(=O)c2cccc(NC(=O)c3ccc([N+](=O)[O-])cc3)c2)c1
inactive	inactive	inactive	inactive	inactive	Cc1cccc(C(=O)Nc2ccc(NC(=O)c3ccc([N+](=O)[O-])cc3)cc2)c1
inactive	inactive	inactive	inactive	inactive	Cc1cccc(C(=O)Nc2ccc(S(=O)(=O)Oc3ccc([N+](=O)[O-])cc3)cc2)c1
inactive	inactive	inactive	inactive	inactive	Cc1cccc(C(=O)Nc2cccc(NC(=O)c3cccc([N+](=O)[O-])c3)c2)c1
inactive	inactive	inactive	inactive	inactive	Cc1ccc(C(=O)Nc2ccc(S(=O)(=O)Nc3cccc([N+](=O)[O-])c3)cc2)cc1
inactive	inactive	inactive	inactive	inactive	Cc1cccc(NC(=O)c2ccc(NC(=O)c3ccc([N+](=O)[O-])cc3)cc2)c1
